We go through 22 compounds from patent US12029739B2, “SHP2 inhibitor and use thereof” (KANAPH THERAPEUTICS INC., priority 2021, dated 2024).

As usually defined, the IC50 is the concentration needed to halve the response being measured.

One assay addresses T1, SHP2 (full length) (Homo sapiens, UniProt Q06124).
T1 construct: SHP2 (full length, diluted to 100 pM final concentration in reaction buffer, BPS bioscience, US); purchased BPS bioscience, US
T1 sequence (Q06124 1-593): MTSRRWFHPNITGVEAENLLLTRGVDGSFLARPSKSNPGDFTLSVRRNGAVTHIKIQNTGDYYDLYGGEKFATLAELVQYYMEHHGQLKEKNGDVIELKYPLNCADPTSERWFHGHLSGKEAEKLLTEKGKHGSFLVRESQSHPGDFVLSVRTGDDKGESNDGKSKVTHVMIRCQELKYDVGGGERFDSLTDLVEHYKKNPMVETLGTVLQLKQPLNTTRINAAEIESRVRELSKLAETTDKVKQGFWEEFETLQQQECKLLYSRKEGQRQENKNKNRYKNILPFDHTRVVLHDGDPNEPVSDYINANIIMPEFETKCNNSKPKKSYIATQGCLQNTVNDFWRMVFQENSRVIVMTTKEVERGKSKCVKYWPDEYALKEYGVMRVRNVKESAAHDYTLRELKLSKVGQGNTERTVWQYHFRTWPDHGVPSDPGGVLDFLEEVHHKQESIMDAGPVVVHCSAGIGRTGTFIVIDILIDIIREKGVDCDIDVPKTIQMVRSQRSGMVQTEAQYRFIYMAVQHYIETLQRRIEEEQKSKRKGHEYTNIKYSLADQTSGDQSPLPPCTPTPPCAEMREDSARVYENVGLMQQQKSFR
The experiment in a line: Phosphatase assay (PTPase assay) with DiFMUP substrate. In kind it is biochemical. As to conditions: SHP2 activated with SHP2 activating peptide, DiFMUP 80 μM, 2 hours, fluorescence.

Assay [1] deals with phospho-ERK in MIA PaCa2 or H358 cells. The experiment in a line: Phospho-ERK assay (AlphaLisa). In kind it is cell-based. (In general: In Alpha technology, singlet oxygen from a donor bead excites a nearby acceptor bead.)
[2] abbreviates: 1.5 h, MIA PaCa2 or H358 cells, compound incubated 1.5 hours, read-out: IC50 (p-ERK).
The mark [3] stands for this setting: MIA PaCa2 or H358 cells, compound incubated 1.5 hours, read-out: IC50 (p-ERK).

Like-named read-outs stand apart in the source and are kept apart here. Where only a bound is given, the exact number is not on record here.

With `C[C@@H]1OCC2(CCN(c3cnc(Sc4ccc5ncn(CC(N)=O)c(=O)c5c4Cl)cn3)CC2)[C@@H]1N` [Example 97, 2-(6-((5-((3S,4S)-4-amino-3-methyl-2-oxa-8-azaspiro[4.5]decan-8-yl)pyrazin-2-yl)thio)-5-chloro-4-oxoquinazolin-3(4H)-yl)acetamide], the results for the IC50 (at SHP2 (full length) (read-out: IC50 (PTPase aS say)); in assay [1] (setting [2])) were under 3 nM and under 45 nM, respectively.

`C[C@@H]1OCC2(CCN(c3cnc(Sc4ccc5ncn(Cc6cnccn6)c(=O)c5c4Cl)cn3)CC2)[C@@H]1N` [Example 44, 6-((5-((3S,4S)-4-amino-3-methyl-2-oxa-8-azaspiro[4.5]decan-8-yl)pyrazin-2-yl)thio)-5-chloro-3-(pyrazin-2-ylmethyl)quinazolin-4(3H)-one]: the IC50 at SHP2 (full length) (read-out: IC50 (PTPase aS say)) is under 3 nM; in assay [1] (setting [2]), under 45 nM.

On to `COCCn1cnc2ccc(Sc3cnc(N4CCC5(CC4)Cc4scnc4[C@H]5N)c(CO)n3)c(Cl)c2c1=O` [Example 170, (S)-6-((5-(4-amino-4,6-dihydrospiro[yclopenta[d]thiazole-5,4′-piperidin]-1′-yl)-6-(hydroxymethyl)pyrazin-2-yl)thio)-5-chloro-3-(2-methoxyethyl)quinazolin-4(3H)-one], for which the IC50 is under 3 nM on SHP2 (full length) (read-out: IC50 (PTPase aS say)) and under 45 nM in assay [1] (setting [2]).

`COC(C)Cn1cnc2ccc(Sc3cnc(N4CCC5(CC4)CO[C@@H](C)[C@H]5N)cn3)c(Cl)c2c1=O` (some centres unmarked) [Example 120]: the results for the IC50 (on SHP2 (full length) (read-out: IC50 (PTPase aS say)); in assay [1] (setting [2])) were under 3 nM and under 45 nM, respectively.

For `CC(C)(O)Cn1cnc2ccc(Sc3ncc(N4CCC5(CC4)Cc4scnc4[C@H]5N)nc3N)c(Cl)c2c1=O` [Example 165, (S)-6-((3-amino-5-(4-amino-4,6-dihydrospiro[cyclopenta[d]thiazole-5,4′-piperidin]-1′-yl)pyrazin-2-yl)thio)-5-chloro-3-(2-hydroxy-2-methylpropyl)quinazolin-4(3H)-one], the IC50 is under 3 nM on SHP2 (full length) (read-out: IC50 (PTPase aS say)) and under 45 nM in assay [1] (setting [2]).

In the case of `COCCn1cnc2ccc(Sc3nc(C(N)=O)c(N4CCC5(CC4)CO[C@@H](C)[C@H]5N)nc3N)c(Cl)c2c1=O` [Example 154, 5-amino-3-[(3S,4S)-4-amino-3-methyl-2-oxa-8-azaspiro[4.5]decan-8-yl]-6-[5-chloro-3-(2-methoxyethyl)-4-oxo-quinazolin-6-yl]sulfanyl-pyrazine-2-carboxamide], the IC50 at SHP2 (full length) (read-out: IC50 (PTPase aS say)) was in the range of 3 to 100 nM; in assay [1] (setting [2]), 45 to 1500 nM.

Take `COCCn1cnc2ccc(Sc3cnc(N4CCC5(CCC[C@H]5N)CC4)cn3)c(Cl)c2c1=O` [Example 180, (R)-6-((5-(1-amino-8-azaspiro[4.5]decan-8-yl)pyrazin-2-yl)thio)-5-chloro-3-(2-methoxyethyl)quinazolin-4(3H)-one]: the values for the IC50 (at SHP2 (full length) (read-out: IC50 (PTPase aS say)); in assay [1] (setting [2])) were under 3 nM and 45 to 1500 nM, respectively.

On to `C[C@@H]1OCC2(CCN(c3cnc(Sc4ccc5ncn(Cc6ccccc6)c(=O)c5c4Cl)cn3)CC2)[C@@H]1N` [Example 18, 6-((5-((3S,4S)-4-amino-3-methyl-2-oxa-8-azaspiro[4.5]decan-8-yl)pyrazin-2-yl)thio)-3-benzyl-5-chloroquinazolin-4(3H)-one], for which the results for the IC50 (at SHP2 (full length) (read-out: IC50 (PTPase aS say)); in assay [1] (setting [3])) were under 3 nM and under 45 nM, respectively.

For `C[C@@H]1OCC2(CCN(c3cnc(Sc4ccc5ncn(Cc6cccc(S(=O)(=O)F)c6)c(=O)c5c4Cl)cn3)CC2)[C@@H]1N` [Example 19, 3-((6-((5-((3S,4S)-4-amino-3-methyl-2-oxa-8-azospiro[4.5]decan-8-yl)pyrazin-2-yl)thio)-5-chloro-4-oxoquinazolin-3(4H)-yl)methyl)benzenesulfonyl fluoride], the IC50 at SHP2 (full length) (IC50 (PTPase aS say, nM)) was under 3 nM; in assay [1] (1.5 h, read-out: IC50 (p-ERK, nM)), 45 to 1500 nM.

Consider `C[C@@H]1OCC2(CCN(c3cnc(Sc4ccc5ncn(CCOC(F)(F)F)c(=O)c5c4Cl)cn3)CC2)[C@@H]1N` [Example 96, 6-((5-((3S,4S)-4-amino-3-methyl-2-oxa-8-azaspiro[4.5]decan-8-yl)pyrazin-2-yl)thio)-5-chloro-3-(2-(trifluoromethoxy)ethyl)quinazolin-4(3H)-one], for which the IC50 was 3 to 100 nM at SHP2 (full length) (read-out: IC50 (PTPase aS say)) and under 45 nM in assay [1] (setting [2]).

For `C[C@@H]1OCC2(CCN(c3cnc(Sc4ccc5ncn(Cc6ccc(F)cc6)c(=O)c5c4Cl)cn3)CC2)[C@@H]1N` [Example 40, 6-((5-((3S,4S)-4-amino-3-methyl-2-oxa-8-azaspiro[4.5]decan-8-yl)pyrazin-2-yl)thio)-5-chloro-3-(4-fluorobenzyl)quinazolin-4(3H)-one], the IC50 at SHP2 (full length) (read-out: IC50 (PTPase aS say)) is under 3 nM; in assay [1] (setting [2]), 45 to 1500 nM.

With `NC(=O)c1nc(Sc2ccc3ncn(CC4CCOCC4)c(=O)c3c2Cl)cnc1N1CCC2(CC1)Cc1ncsc1[C@H]2N` [Example 174, (S)-3-(6-amino-4,6-dihydrospiro[cyclopenta[d]thiazole-5,4′-piperidin]-1′-yl)-6-((5-chloro-4-oxo-3-((tetrahydro-2H-pyran-4-yl)methyl)-3,4-dihydroquinazolin-6-yl)thio)pyrazine-2-carboxamide], the concentration for half-maximal inhibition (IC50) on SHP2 (full length) (read-out: IC50 (PTPase aS say)) is under 3 nM; in assay [1] (setting [2]) it was under 45 nM.

With `COCCn1cnc2ccc(Sc3cnc(N4CCC5(CC4)Cc4ccccc4[C@H]5N)cn3)c(Cl)c2c1=O` [Example 84, (S)-6-((5-(1-amino-1,3-dihydrospiro(indene-2,4′-piperidin]-1′-yl)pyrazin-2-yl)thio)-5-chloro-3-(2-methoxyethyl)quinazolin-4(3H)-one], the IC50 at SHP2 (full length) (read-out: IC50 (PTPase aS say)) was under 3 nM; in assay [1] (setting [3]), under 45 nM.

Turning to `C[C@@H]1OCC2(CCN(c3cnc(Sc4ccc5nc(Cc6cnccn6)[nH]c5c4Cl)cn3)CC2)[C@@H]1N` [Example 136, (3S,4S)-8-(5-((7-chloro-2-(pyrazin-2-ylmethyl)-1H-benzo[d]imidazol-6-yl)thio)pyrazin-2-yl)-3-methyl-2-oxa-8-azaspiro[4.5]decan-4-amine], the values for the IC50 (on SHP2 (full length) (read-out: IC50 (PTPase aS say)); in assay [1] (setting [2])) were under 3 nM and under 45 nM, respectively.

Turning to `N[C@@H]1c2cccnc2CC12CCN(c1cnc(Sc3ccc4ncn(CC5CCOC5)c(=O)c4c3Cl)cn1)CC2` (stereo partly drawn) [Example 107, 6-((5-((S)-5-amino-5,7-dihydrospiro[yclopenta[b]pyridine-6,4′-piperidin]-1′-yl)pyrazin-2-yl]thio)-5-chloro-3-((tetrahydrofuran-3-yl)methyl)quinazolin-4(3H)-one], the IC50 on SHP2 (full length) (read-out: IC50 (PTPase aS say)) is under 3 nM; in assay [1] (setting [2]) it was under 45 nM.

Regarding `C[C@@H]1OCC2(CCN(c3cnc(Sc4ccc5ncn(Cc6nc7ccccc7o6)c(=O)c5c4Cl)cn3)CC2)[C@@H]1N` [Example 47, 6-((5-((3S,4S)-4-amino-3-methyl-2-oxa-8-azaspiro[4.5]decan-8-yl)pyrazin-2-yl)thio)-3-(benzooxazol-2-ylmethyl)-5-chloroquinazolin-4(3H)-one], the IC50 on SHP2 (full length) (read-out: IC50 (PTPase aS say)) is under 3 nM; in assay [1] (setting [2]), under 45 nM.

With `CNS(=O)(=O)c1cccc(Sc2cnc(N3CCC(C)(N)CC3)cn2)c1Cl` [Example 8, 3-((5-(4-amino-4-methylpiperidin-1-yl)pyrazin-2-yl)thio)-2-chloro-N-methylbenzenesulfonamide], the IC50 on SHP2 (full length) (read-out: IC50 (PTPase aS say)) was 3 to 100 nM; in assay [1] (setting [2]), over 1500 nM.

Take `C[C@@H]1OCC2(CCN(c3cnc(Sc4ccc5ncn(Cc6cccc(C#N)c6)c(=O)c5c4Cl)cn3)CC2)[C@@H]1N` [Example 31, 3-((6-((5-((3S,4S)-4-amino-3-methyl-2-oxa-8-azaspiro[4.5]decan-8-yl)pyrazin-2-yl)thio)-5-chloro-4-oxoquinazolin-3(4H)-yl)methyl)benzonitrile]: the IC50 was under 3 nM on SHP2 (full length) (read-out: IC50 (PTPase aS say)) and under 45 nM in assay [1] (setting [2]).

As to `COCCn1cnc2ccc(Sc3ncc(N4CCC5(CC4)Cc4ncccc4[C@H]5N)nc3N)c(Cl)c2c1=O` [Example 134], the figures for the IC50 (on SHP2 (full length) (read-out: IC50 (PTPase aS say)); in assay [1] (setting [2])) were 3 to 100 nM and 45 to 1500 nM, respectively.

With `COc1ccc(Cn2cnc3ccc(Sc4cnc(N5CCC6(CC5)CO[C@@H](C)[C@H]6N)cn4)c(Cl)c3c2=O)c(F)c1` [Example 72, 6-((5-((3S,4S)-4-amino-3-methyl-2-oxa-8-azaspiro[4.5]decan-8-yl)pyrazin-2-yl)thio)-5-chloro-3-(2-fluoro-4-methoxybenzyl)quinazolin-4(3H)-one], the IC50 at SHP2 (full length) (read-out: IC50 (PTPase aS say)) was under 3 nM; in assay [1] (setting [2]), under 45 nM.

Consider `C[C@@H]1OCC2(CCN(c3cnc(Sc4ccc5c(c4Cl)C(=O)N(Cc4ccccc4)C5)cn3)CC2)[C@@H]1N` [Example 133, 6-((5-((3S,4S)-4-amino-3-methyl-2-oxa-8-azaspiro[4,5]decan-8-yl)-pyrazin-2-yl)thio)-2-benzyl-7-chloroisoindolin-1-one], for which the IC50 on SHP2 (full length) (read-out: IC50 (PTPase aS say)) was in the range of 3 to 100 nM; in assay [1] (setting [2]) it was 45 to 1500 nM.

With `Cn1c(N2CCN(CC(N)Cc3cccnc3)CC2)nc(N)c(Sc2cccc(Cl)c2Cl)c1=O` (centres unmarked) [Example 188, 6-amino-2-(4-(2-amino-3-(pyridin-3-yl)propyl)piperazin-1-yl)-5-((2,3-dichlorophenyl)thio)-3-methylpyrimidin-4(3H)-one], the IC50 at SHP2 (full length) (read-out: IC50 (PTPase aS say)) is over 100 nM; in assay [1] (setting [2]), over 1500 nM.
